Results: patent publication US8697839B2, “GQ protein competitive inhibitory polypeptides, preparation methods and uses thereof” (Third Military Medical University, priority 2008, dated 2014)
Marks after values point to notes of the source that are not given here.

Tests used:
[1] = clinical dosage converted into the dosage in the mouse; cited from earlier work
[2] = system: hypertrophic cardiocyte induced by angiotensin II; experiment: protein content in rat cardiocyte hypertrophy induced by angiotensin II (Lowry method); format: cell-based; settings: for Protein content: 24 h, n = 6, x ± s; for effect on protein content in the cardiocyte in comparison with Ang II: polypeptide 10 nmol/L + Ang II
Protocol: 1. The cardiocytes were cultured for 48 h in the same way as described above, then subjected to replacement of the DMEM with a serum-free DMEM culture media, and further cultured for 24 h before addition of a drug according to the following groups: normal control group: 10 μl of PBS was added; Ang II group; Ang II was added at 1 μmol/L; serial polypeptide-dosed group: Ang II was added, while each of the dodecapeptide, pentadecapeptide, heptacosapeptide, pantapentacontapeptide was added at 10 nmol/L.
(§1) 2. After addition of the drug, the cells were further cultured for 24 h and then the culture media was discarded. The culture was washed with PBS, followed by adding 0.5 ml of 5% trichloracetic acid per well, and left at 4° C. for 1 h. The precipitate was dissolved in 1 ml of 0.1 mol/L NaOH. The protein content was determined by Lowry method.

[3] = system: cultured cardiocytes of the rats (hypertrophy induced by NE); experiment: protein content in rat cardiocyte hypertrophy induced by norepinephrine (Lowry method); format: cell-based, Wistar rats; settings: for Protein content: 24 h, n = 6, x ± s; for effect on protein content in the hypertrophic cardiocyte induced by NE: polypeptide at 10 nmol/L
Source text: 1. Wistar rats 1-3 day postpartum (purchased from Center for Experimental Animal, Third Military Medical University) was used, sacrificed by cervical dislocation, and fixed on a dissecting table. The ventral skin of the corpus was disinfected with 2% iodine tincture and then 75% ethanol. The heart was removed, cutted into pieces of about 1-3 mm^3, digested repeatedly with a digestion solution containing 0.08% trypase, 0.02% EDTA, and 0.05% collogen. The cells were collected in DMEM containing 10% fetal bovine serum and cultured in an incubator at 37° C., 5% CO2.
2. The cardiocytes cultured for 48 h were subjected to replacement of the DMEM with a serum-free DMEM culture media and further cultured for 24 h before addition of a drug according to the following groups: • Normal control group; 10 μl of PBS was added. • Norepinephrine group; norepinephrine (NE, Serva Corporation, USA) was added at 1 μmol/L. • Polypeptide-dosed group: NE was added, while the corresponding polypeptide drug was added at 10 nmol/L.
as §1, with “3.” for “2.”

[4] = system: myocardial hypertrophy in mice induced by norepinephrine; experiment: myocardial hypertrophy in mice induced by norepinephrine; format: in vivo; settings: for HI (heart index) / HW (heart weight) / LVI (left ventricular index or myocardial hypertrophy index) / LVW (left ventricular weight): x ± s
Protocol: Fifty of the mice used in the experiment (purchased from Center for Experimental Animals, Third Military Medical University) was assigned into five groups with 10 mice per group. The mice in the control group were administrated with 0.1% ascorbic acid-3 mg % potassium sodium tartrate-physiological saline, The mice in the model group were administrated with 0.1% ascorbic acid-6 mg % norepinephrine bitartrate-physiological saline (equivalent to 1.5 mg/kg NE); The mice in three dosing groups were administrated with the pentadecapeptide, the heptacosapeptide, and the pantapentacontapeptide at 30 μg/kg respectively, while administration of 0.1% ascorbic acid—6 mg % norepinephrine bitartrate—physiological saline. The administration was performed consecutively by intraperitoneal injection (ip), twice a day (bid), for 15 days. The dosing volumes for each group were 50 ml/kg. Then, the animals were sacrificed by cervical dislocation. The heart was removed by thoracotomy, washed with the chilled physiological saline to get rid of blood stain, blotted with filter paper, weighed on a scale. The atriums and the right ventricle were carefully removed (with the interventricular septum left), and the left ventricle was weighed.

[5] = system: myocardial hypertrophy in rats induced by norepinephrine; experiment: myocardial hypertrophy in rats induced by norepinephrine; format: in vivo, Wistar rats; settings: for HI (heart index) / HW (heart weight) / LVI (left ventricular index or myocardial hypertrophy index) / LVW (left ventricular weight): n = 6, x ± s
Protocol: Thirty of Wistar rats were selected and assigned into five groups with 6 rats per group. The rats in the control group were administrated with 0.1% ascorbic acid-3 mg % potassium sodium tartrate-physiological saline; the rats in the model group were administrated with 0.1% ascorbic acid-6 mg % norepinephrine bitartrate-physiological saline; the rats in the three dosing groups were administrated with the pentadecapeptide, the heptacosapeptide, and the pantapentacontapeptide at 15 μg/kg respectively, while administration of norepinephrine. The dosing volume for each group was 33 ml/kg, and the administration was performed consecutively by ip, bid, for 20 days. At that time, the heart and left ventricle were weighed.

[6] = system: myocardial hypertrophy in rats induced by aortic coarctation; experiment: myocardial hypertrophy in rats induced by aortic coarctation; format: in vivo, Wistar rats; settings: 15 μg/kg ip once a day, 3 weeks post operation; x ± SEM
Source text: Healthy male Wistar rats (purchased from Center for Experimental Animals, Third Military Medical University) were randomly assigned into the following groups: the sham-operation group, operation model group (SRS), and polypeptide-dosing group. Before the operation, animals were fasted overnight and given Ad libitum access to water, and then anesthetized with pentobarbital sodium and underwent celiotomy. The abdominal aorta was separated, and a […] needle (0.80 mm outer diameter) was fastened along the abdominal aorta above the right renal artery with a silk suture before the needle was quickly removed. Then, the abdomen was closed by suturation. The rats in the sham operation group were subjected to the same treatment as the aforementioned, except no ligation with silk suture. From the first day post operation, the rats in the sham operation control group and in the operation model group were administrated with physiological saline at 7.5 ml/kg, ip, once a day; the rats in the dosing group were administrated with the pentadecapeptide, heptacosapeptide, and pantapentacontapeptide at 15 μg/kg respectively, ip, once a day. Rats were reared routinely for 3 weeks and then sacrificed. The heart was removed by thoracotomy, washed with the chilled physiological saline to get rid of blood stain, blotted with filter paper. The heart and the left ventricle were weighed on a scale.

[7] = system: rats with spontaneous hypertension (SHR); experiment: myocardial remodeling and blood pressure in rats with spontaneous hypertension (SHR); format: in vivo, rat; settings: polypeptide 30 μg/kg ip bid, SHR, x ± s, n = 6
Protocol: 1. Thirty 13-week-old rats with spontaneous hypertension (SHR, purchased from Beijing Vital River Laboratory Animal Technology Co. Ltd., Beijing) were selected and randomly assigned into five groups with 6 rats per group:
SHR model group (Vehicle): 0.9% physiological saline, intraperitoneal injection at a dosage of 5 ml/kg, bid.
Positive control group (losartan): potassium losartan at a dosage of 6 mg/kg, intragastric administration, qd.
The pentadecapeptide group: administration of the pentadecapeptide at a dosage of 30 μg/kg by intraperitoneal injection, bid.
The heptacosapeptide group: administration of the heptacosapeptide at a dosage of 30 μg/kg by intraperitoneal injection, bid.
The pantapentacontapeptide group: administration of the pantapentacontapeptide at a dosage of 30 μg/kg by intraperitoneal injection, bid.
Six of INKY (Wistar-Kyoto) rats (purchased from Center for Experimental Animals, Third Military Medical University) were additionally selected as the normal control.
2. Intervention with the drug was performed consecutively for eight weeks (from Week 14 to Week 21). The body weights of all the tested rats were obtained once every two weeks, and the administration dosage was adjustedbased on body weights.

[8] = NE model group: equivalent to 1.5 mg/kg NE ip bid 15 days, alone
[9] = NE model group: 6 mg % norepinephrine bitartrate, 33 ml/kg ip bid 20 days, alone
[10] = polypeptide 10 nmol/L together with NE 1 μmol/L
[11] = polypeptide 10 nmol/L together with Ang II 1 μmol/L
[12] = polypeptide 30 μg/kg ip bid 15 days with NE
[13] = polypeptide 15 μg/kg ip bid 20 days with norepinephrine

Compound: C[C@H](CS)C(=O)N1CCC[C@H]1C(=O)O [captopril]
- ratio of mouse LD50/routine dosage [1]: 388

Compound: angiotensin II (DRVYIHPF; Angiotensin-2; UniProt P01019 25-32, looked up) [Ang II, inducer of cardiocyte hypertrophy, reference compound]
- protein content in the cardiocyte ([2]; Ang II added alone, vs 113.9±7.48 normal control, p<0.01): 143.2 ± 5.49 µg
- Protein content ([2]; Ang II group: Ang II 1000 nmol/L alone): 143.2 ± 5.49 μg/10^5 cells

Compound: NC[C@H](O)c1ccc(O)c(O)c1 [NE, norepinephrine, reference compound]
- Protein content ([3]; NE group: NE 1000 nmol/L alone): 121.0 ± 13.2 μg/10^5 cells
- HI (heart index) [4, 8]: 4.82 ± 0.44 mg/g
- HW (heart weight) [4, 8]: 112.1 ± 12.1 mg
- LVI (left ventricular index or myocardial hypertrophy index) [4, 8]: 3.69 ± 0.36 mg/g
- LVW (left ventricular weight) [4, 8]: 85.6 ± 9.16 mg
- HI (heart index) [5, 9]: 3.674 ± 0.348 g/kg
- HW (heart weight) [5, 9]: 0.690 ± 0.078 g
- LVI (left ventricular index or myocardial hypertrophy index) [5, 9]: 2.954 ± 0.225 g/kg
- LVW (left ventricular weight) [5, 9]: 0.555 ± 0.055 g

Compound: Dicosapeptide: SEQ ID NO: 7 (icosapeptide), obtained by deleting amino acid residues 1 to 35 at the N-terminal of SEQ ID NO: 1 (VFAAVKDTILQLNLKEYNLV; listed as Homo sapiens)
- Protein content [3, 10]: 103.4 ± 11.4 μg/10^5 cells
- effect on protein content in the hypertrophic cardiocyte induced by NE [3]: significantly decrease

Compound: Dodecapeptide: SEQ ID NO: 10, obtained by deleting amino acid residues 1 to 43 at the N-terminal of SEQ ID NO: 1 (ILQLNLKEYNLV; listed as Homo sapiens)
- Protein content [3, 10]: 113.3 ± 11.6 μg/10^5 cells
- effect on protein content in the hypertrophic cardiocyte induced by NE [3]: no manifest effect
- effect on protein content in the cardiocyte in comparison with Ang II [2]: no manifest effect
- Protein content [2, 11]: 144.0 ± 11.7 μg/10^5 cells

Compound: Pentadecapeptide: SEQ ID NO: 9, obtained by deleting amino acid residues 1 to 40 at the N-terminal of SEQ ID NO: 1 (KDTILQLNLKEYNLV; listed as Homo sapiens)
- Protein content [3, 10]: 104.3 ± 12.6 μg/10^5 cells
- effect on protein content in the hypertrophic cardiocyte induced by NE [3]: significantly decrease
- effect on protein content in the cardiocyte in comparison with Ang II [2]: decrease the protein content in the cardiocyte in varying degrees
- Protein content [2, 11]: 130.6 ± 10.79 μg/10^5 cells
- decrease of heart weight ([4]; 30 μg/kg ip bid 15 days with NE, P>0.05): 9.9%
- HI (heart index) [4, 12]: 4.27 ± 0.42 mg/g
- HW (heart weight) [4, 12]: 100.9 ± 12.8 mg
- LVI (left ventricular index or myocardial hypertrophy index) [4, 12]: 3.16 ± 0.39 mg/g
- LVW (left ventricular weight) [4, 12]: 74.7 ± 9.25 mg
- effect on the left ventricular index ([5]; 15 μg/kg ip bid 20 days with norepinephrine): significantly decrease
- HI (heart index) [5, 13]: 3.580 ± 0.226 g/kg
- HW (heart weight) [5, 13]: 0.673 ± 0.055 g
- LVI (left ventricular index or myocardial hypertrophy index) [5, 13]: 2.606 ± 0.154 g/kg
- LVW (left ventricular weight) [5, 13]: 0.490 ± 0.038 g
- HI [6]: 3.39 ± 0.10 mg/g
- HW [6]: 706 ± 30.8 mg
- LVI [6]: 2.01 ± 0.06 mg/g
- LVW [6]: 418 ± 12.3 mg
- Systolic blood pressure of artery ([7]; 0 w): 177.3 ± 6.42 mmHg
- Systolic blood pressure of artery ([7]; 2 w): 190.4 ± 7.75 mmHg
- Systolic blood pressure of artery ([7]; 4 w): 200.2 ± 4.13 mmHg
- Systolic blood pressure of artery ([7]; 6 w): 217.1 ± 8.82 mmHg
- Systolic blood pressure of artery ([7]; 8 w): 224.1 ± 6.37 mmHg
- EF (ejection fraction) ([7]; echocardiography): 89.4 ± 3.90%
- FS (shortening fraction) ([7]; echocardiography): 55.1 ± 4.33%
- IVST (intervertricular septum thickness) ([7]; echocardiography): 1.62 ± 0.20 mm
- LAD (left atrium sinistrum diameter) ([7]; echocardiography): 3.39 ± 0.33 mm
- LVEDD (left ventricular end diastolic diameter) ([7]; echocardiography): 5.38 ± 0.31 mm
- LVESD ([7]; echocardiography): 2.41 ± 0.35 mm
- PWT (left ventricular posterior wall thickness) ([7]; echocardiography): 1.96 ± 0.16 mm
- SV (stroke volume) ([7]; echocardiography): 0.32 ± 0.05 mL
- HI ([7]; eight weeks): 3.44 ± 0.05 mg/g
- HW ([7]; eight weeks): 1055 ± 30 mg
- LVI ([7]; eight weeks): 2.46 ± 0.04 mg/g
- LVW ([7]; eight weeks): 775 ± 28 mg
- CSA (cross section area of the cardiocyte) [7]: 329 ± 24** μm^2
- TDM (trans diameter of the cardiocyte) [7]: 14.88 ± 2.56 μm

Compound: Heptadecapeptide: SEQ ID NO: 8, obtained by deleting amino acid residues 1 to 38 at the N-terminal of SEQ ID NO: 1 (AVKDTILQLNLKEYNLV; listed as Homo sapiens)
- Protein content [3, 10]: 96.4 ± 10.5 μg/10^5 cells
- effect on protein content in the hypertrophic cardiocyte induced by NE [3]: significantly decrease
